Measurements: US20120121540A1 (priority 2007, published 2012)

Assay: HCV replicon assay (luciferase reporter, ET cell line)
Assay type: cell-based
Conditions: Hepatitis C virus, HCV replicon luciferase activity in ET cells
Procedure, shortened: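 ET cells carry a stable luciferase-ubiquitin-neo/NS3-5B subgenomic HCV replicon with adaptive mutations. Compounds (0.1 nM to […], 0.5% DMSO) were added 24 h after plating, and luciferase was read 48-72 h later. EC50 came from 10-point 2-fold dilutions fitted to a Hill equation; TC50 was measured in parallel by WST-1.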

Row | SMILES | inhibition at 10 µM [%]
1 | O=C(c1nc2c(C(F)(F)F)cc(-c3cn[nH]c3)cn2c1Cl)N1CC=C(c2ccco2)C1 [Compound 444, [3-Chloro-6-(1H-pyrazol-4-yl)-8-(trifluoromethyl)imidazo[1,2-a]pyridin-2-yl][3-(furan-2-yl)-2,5-dihydro-1H-pyrrol-1-yl]methanone] | 98
2 | O=C(NCc1cccs1)c1nc2c(C(F)(F)F)cc(-c3cccc(F)c3)cn2c1C#Cc1cccnc1 [Compound 305, 6-(3-Fluoro-phenyl)-3-pyridin-3-ylethynyl-8-trifluoromethyl-imidazo[1,2-a]pyridine-2-carboxylic Acid (thiophen-2-ylmethyl)-amide] | 59.5
3 | O=C(NCC1CC1)c1nc2c(C(F)(F)F)cc(-c3ccco3)cn2c1Cl [Compound 169, 3-Chloro-6-furan-2-yl-8-trifluoromethyl-imidazo[1,2-a]pyridine-2-carboxylic acid cyclopropylmethyl-amide] | 50.3
4 | O=C(NCC1CCCCC1)c1nc2c(C(F)(F)F)cc(-c3ccco3)cn2c1Cl [Compound 170, 3-Chloro-6-furan-2-yl-8-trifluoromethyl-imidazo[1,2-a]pyridine-2-carboxylic acid cyclohexylmethyl-amide] | 58
5 | COC(=O)c1ccccc1C1CCN(C(=O)c2nc3c(C(F)(F)F)cc(-c4ccoc4)cn3c2Cl)C1 (centres unmarked) [Compound 338, 2-[1-(3-Chloro-6-furan-3-yl-8-trifluoromethyl-imidazo[1,2-a]pyridine-2-carbonyl)-pyrrolidin-3-yl]-benzoic Acid Methyl Ester] | 49.3
6 | CN(C)S(=O)(=O)NC1CN(C(=O)c2nc3c(C(F)(F)F)cc(-c4ccoc4)cn3c2Cl)C1 [Compound 504] | 98.9
7 | C#Cc1ccccc1C1=CCN(C(=O)c2nc3c(C(F)(F)F)cc(-c4ccoc4)cn3c2Cl)CC1 [Compound 567, (3-Chloro-6-furan-3-yl-8-trifluoromethyl-imidazo[1,2-a]pyridin-2-yl)-[4-(2-ethynyl-phenyl)-3,6-dihydro-2H-pyridin-1-yl)-methanone] | 81.3
8 | Cc1n[nH]cc1-c1cc(C(F)(F)F)c2nc(C(=O)N3CCC(c4cccc(F)c4)C3)c(Cl)n2c1 (centres unmarked) [Compound 625, [3-Chloro-6-(3-methyl-1H-pyrazol-4-yl)-8-trifluoromethyl-imidazo[1,2-a]pyridin-2-yl]-[3-(3-fluoro-phenyl)-pyrrolidin-1-yl]-methanone] | 59.8
9 | O=C(NCc1cccs1)c1nc2c(C(F)(F)F)cc(C3=CCCCC3)cn2c1Cl [Compound 282, 3-Chloro-6-cyclohex-1-enyl-8-trifluoromethyl-imidazo[1,2-a]pyridine-2-carboxylic acid (thiophen-2-ylmethyl)-amide] | 97.6
10 | O=C(c1nc2c(C(F)(F)F)cc(-c3ccoc3)cn2c1Cl)N1CCC(Oc2ccccc2)C1 (centres unmarked) [Compound 593, (3-Chloro-6-furan-3-yl-8-trifluoromethyl-imidazo[1,2-a]pyridin-2-yl)-(3-phenoxy-pyrrolidin-1-yl)-methanone] | 89.5
11 | O=C(c1nc2c(C(F)(F)F)cc(-c3ccoc3)cn2c1Cl)N1CC(NS(=O)(=O)c2ccc(F)cc2)C1 [Compound 496, N-[1-(3-Chloro-6-furan-3-yl-8-trifluoromethyl-imidazo[1,2-a]pyridine-2-carbonyl)-azetidin-3-yl]-4-fluoro-benzenesulfonamide] | 94.3
12 | O=C(c1nc2c(C(F)(F)F)cc(-c3ccco3)cn2c1Cl)N1CCC(Cc2ccccc2)C1 (centres unmarked) [Compound 326, (3-Benzyl-pyrrolidin-1-yl)-(3-chloro-6-furan-2-yl-8-trifluoromethyl-imidazo[1,2-a]pyridin-2-yl)-methanone] | 66.7
13 | O=C(NCc1cccc(F)c1)c1nc2c(C(F)(F)F)cc(-c3ccoc3)cn2c1Cl [Compound 403] | 88.9
14 | O=C(c1nc2c(C(F)(F)F)cc(-c3ccoc3)cn2c1Cl)N1CC=C(c2ccc(F)nc2F)CC1 [Compound 617, (3-Chloro-6-furan-3-yl-8-trifluoromethyl-imidazo[1,2-a]pyridin-2-yl)-(2,6-difluoro-3′,6′-dihydro-2′H-[3,4′]bipyridinyl-1′-yl)-methanone] | 95
15 | O=C(NC1CCc2ccccc21)c1nc2c(C(F)(F)F)cc(-c3ccco3)cn2c1Cl (centres unmarked) [Compound 187, 3-Chloro-6-furan-2-yl-8-trifluoromethyl-imidazo[1,2-a]pyridine-2-carboxylic acid indan-1-ylamide] | 34.2
16 | O=C(c1nc2c(C(F)(F)F)cc(-c3cn[nH]c3)cn2c1Cl)N1CCC(c2ccc(F)cc2)C1 (centres unmarked) [Compound 238, [3-Chloro-6-(1H-pyrazol-4-yl)-8-trifluoromethyl-imidazo[1,2-a]pyridin-2-yl]-[3-(4-fluoro-phenyl)-pyrrolidin-1-yl]-methanone] | 86.9

Row | SMILES | inhibition at 10 µM [%]
17 | O=C(NCc1cccs1)c1nc2c(-c3ncon3)cc(-c3ccoc3)cn2c1Cl [Compound 374, 3-Chloro-6-furan-3-yl-8-[1,2,4]oxadiazol-3-yl-imidazo[1,2-a]pyridine-2-carboxylic Acid (thiophen-2-ylmethyl)-amide] | 28.6
18 | COC(=O)[C@@H]1CN(C(=O)c2nc3c(C(F)(F)F)cc(-c4ccoc4)cn3c2Cl)C[C@H]1c1ccccc1 (stereo in doubt) [Compound 221, 1-(3-Chloro-6-furan-3-yl-8-trifluoromethyl-imidazo[1,2-a]pyridine-2-carbonyl)-4-phenyl-pyrrolidine-3-carboxylic Acid Methyl Ester] | 73.6
19 | CC(=O)N(c1ccccc1)C1CCN(C(=O)c2nc3c(C(F)(F)F)cc(-c4ccoc4)cn3c2Cl)C1 (centres unmarked) [Compound 600, N-[1-(3-Chloro-6-furan-3-yl-8-trifluoromethyl-imidazo[1,2-a]pyridine-2-carbonyl)-pyrrolidin-3-yl]-N-phenyl-acetamide] | 76
20 | O=C(c1nc2c(C(F)(F)F)cc(-c3ccoc3)cn2c1Cl)N1CC(NS(=O)(=O)Cc2ccccc2)C1 [Compound 493, N-[1-(3-Chloro-6-furan-3-yl-8-trifluoromethyl-imidazo[1,2-a]pyridine-2-carbonyl)-azetidin-3-yl]-C-phenyl-methanesulfonamide] | 91.4
21 | N#CC1(c2ccccc2)CCN(C(=O)c2nc3c(C(F)(F)F)cc(-c4ccoc4)cn3c2Cl)CC1 [Compound 601, 1-(3-Chloro-6-furan-3-yl-8-trifluoromethyl-imidazo[1,2-a]pyridine-2-carbonyl)-4-phenyl-piperidine-4-carbonitrile] | 98.3
22 | O=C(c1nc2c(C(F)(F)F)cc(-c3ccoc3)cn2c1Cl)N1CCC(C2CCOC2)C1 (centres unmarked) [Compound 431, (3-Chloro-6-furan-3-yl-8-trifluoromethyl-imidazo[1,2-a]pyridin-2-yl)-[3-(tetrahydro-furan-3-yl)-pyrrolidin-1-yl]-methanone] | 95.1
23 | C[C@@H](CNC(=O)c1nc2c(C(F)(F)F)cc(-c3ccoc3)cn2c1Cl)c1ccccc1 (stereo in doubt) [Compound 413, 3-Chloro-6-furan-3-yl-8-trifluoromethyl-imidazo[1,2-a]pyridine-2-carboxylic Acid (2-phenyl-propyl)-amide] | 82.8
24 | O=C(c1nc2c(C(F)(F)F)cc(-c3ccoc3)cn2c1Cl)N1CCN(c2ccccn2)CC1 [Compound 532, (3-Chloro-6-furan-3-yl-8-trifluoromethyl-imidazo[1,2-a]pyridine-2-yl)-[4-pyridin-2-yl-piperazin-1-yl]-methanone] | 79.1
25 | CCn1c(C(=O)N2CCC(c3ccc(F)cc3)C2)nc2c(C(F)(F)F)cc(-c3ccoc3)cc21 (centres unmarked) [Compound 352, (1-Ethyl-6-furan-3-yl-4-trifluoromethyl-1H-benzoimidazol-2-yl)-[3-(4-fluoro-phenyl)-pyrrolidin-1-yl]-methanone] | 49.8
26 | O=C(Cc1nc2c(C(F)(F)F)cc(-c3ccoc3)cn2c1Cl)N1CCC(c2cccc(F)c2)C1 (centres unmarked) [Compound 604, 2-[3-chloro-6-(furan-3-yl)-8-(trifluoromethyl)imidazo [1,2-a]pyridin-2-yl]-1-[3-(3-fluorophenyl)pyrrolidin-1-yl]ethanone] | 74.1
27 | O=C(NCc1cccs1)c1nc2c(C(F)(F)F)cc(-c3ccoc3)cn2c1[N+](=O)[O-] [Compound 232, 6-Furan-3-yl-3-nitro-8-trifluoromethyl-imidazo[1,2-a]pyridine-2-carboxylic Acid (thiophen-2-ylmethyl)-amide] | 56.6
28 | O=C(c1nc2c(C(F)(F)F)cc(-c3ccoc3)cn2c1Cl)N1CCC(Nc2ccccc2)C1 (centres unmarked) [Compound 599, (3-Chloro-6-furan-3-yl-8-trifluoromethyl-imidazo[1,2-a]pyridin-2-yl)-(3-phenylamino-pyrrolidin-1-yl)-methanone] | 91.1
29 | O=C(NCc1cccc(OC(F)(F)F)c1)c1nc2c(C(F)(F)F)cc(-c3ccco3)cn2c1Cl [Compound 203, 3-Chloro-6-furan-2-yl-8-trifluoromethyl-imidazo[1,2-a]pyridine-2-carboxylic acid 3-trifluoromethoxy-benzylamide] | 47.5
30 | O=C(NCCc1ccccc1)c1cc2cc(-c3ccccc3)cc(I)n2n1 [Compound 130, 7-Iodo-5-phenyl-pyrazolo[1,5-a]pyridine-2-carboxylic Acid phenethyl-amide] | 32.3
31 | O=C(c1nc2c(C(F)(F)F)cc(-c3ccoc3)cn2c1Cl)N1CC=C(c2ccc(F)cc2)C1 [Compound 427, (3-Chloro-6-furan-3-yl-8-trifluoromethyl-imidazo[1,2-a]pyridin-2-yl)-[3-(4-fluoro-phenyl)-2,5-dihydro-pyrrol-1-yl]-methanone] | 99.1
32 | O=C(c1nc2c(C(F)(F)F)cc(-c3cn[nH]c3)cn2c1Br)N1CCC(c2ccccc2F)C1 (centres unmarked) [Compound 449, (3-Bromo-6-(1H-pyrazol-4-yl)-8-trifluoromethyl-imidazo[1,2-a]pyridin-2-yl)-(3-(2-fluoro-phenyl)-pyrrolidin-1-yl)-methanone] | 97.4
